Patent US8952024B2, “Herbicidal pyrimidone derivatives” (E I du Pont de Nemours and Company, priority 2009, dated 2015)

Assays:
Format in all cases: in vivo
[1] = tested on: umbrella sedge (Cyperus difformis); assay: Test B flooded paddy test; details: for Plant response rating, Flood, Sedge, Umbrella: 250 g ai/ha, flooded paddy test, visual rating on 0 to 100 scale (0 no effect, 100 complete control) after 13 to 15 days; for Plant response rating, Sedge, Umbrella: Flood (flooded paddy test), 13 to 15 days; for Sedge, Umbrella plant response rating: Flood, 31 g ai/ha, scale 0 to 100 (0 no effect, 100 complete control)
Method in brief: (§1)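 Seedlings reaching 2 leaves are flooded 3 cm deep; test material is delivered to that water, which stays at the same depth. Plants remain in a greenhouse 13–15 days and are then scored by eye versus controls from 0 to 100.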

[2] = tested on: barnyardgrass (Echinochloa crus-galli); assay: Test B flooded paddy test; details: for Plant response rating, Flood, Barnyardgrass: 250 g ai/ha, flooded paddy test, visual rating on 0 to 100 scale (0 no effect, 100 complete control) after 13 to 15 days; for Plant response rating, Barnyardgrass: Flood (flooded paddy test), 13 to 15 days; for Barnyardgrass plant response rating: Flood, 31 g ai/ha, scale 0 to 100 (0 no effect, 100 complete control)
Method in brief: as §1

[3] = tested on: ducksalad (Heteranthera limosa); assay: Test B flooded paddy test; details: for Plant response rating, Flood, Ducksalad: 250 g ai/ha, flooded paddy test, visual rating on 0 to 100 scale (0 no effect, 100 complete control) after 13 to 15 days; for Plant response rating, Ducksalad: Flood (flooded paddy test), 13 to 15 days; for Ducksalad plant response rating: Flood, 31 g ai/ha, scale 0 to 100 (0 no effect, 100 complete control)
Method in brief: as §1

rice (Oryza sativa) = assay: Test B flooded paddy test; details: for Plant response rating, Flood, Rice: 250 g ai/ha, flooded paddy test, visual rating on 0 to 100 scale (0 no effect, 100 complete control) after 13 to 15 days; for Plant response rating, Rice: Flood (flooded paddy test), 13 to 15 days; for Rice plant response rating: Flood, 31 g ai/ha, scale 0 to 100 (0 no effect, 100 complete control)
Method in brief: as §1

[4] = tested on: velvetleaf (Abutilon theophrasti); assay: Test A pre-/postemergence plant response; details: for Velvetleaf plant response rating: visual injury, 0 to 100 scale (0 no effect, 100 complete control), approx. ten days
Method in brief: (§2)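 Pre: directed soil spray on seeded loam/sand blend. Post: same formulation (non-phytotoxic solvent + surfactant) on 2–10 cm plants, 1–2 leaf stage. Greenhouse ~10 d; visual injury score 0–100 vs untreated.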

[5] = tested on: barnyardgrass (Echinochloa crus-galli); assay: Test A pre-/postemergence plant response; details: for Barnyardgrass plant response rating: visual injury, 0 to 100 scale (0 no effect, 100 complete control), approx. ten days
Method in brief: as §2

[6] = tested on: giant foxtail (Setaria faberii); assay: Test A pre-/postemergence plant response; details: for Foxtail, Giant plant response rating: visual injury, 0 to 100 scale (0 no effect, 100 complete control), approx. ten days
Method in brief: as §2

[7] = tested on: morningglory (Ipomoea spp.); assay: Test A pre-/postemergence plant response; details: for Morningglory plant response rating: visual injury, 0 to 100 scale (0 no effect, 100 complete control), approx. ten days
Method in brief: as §2

[8] = tested on: large crabgrass (Digitaria sanguinalis); assay: Test A pre-/postemergence plant response; details: for Crabgrass, Large plant response rating: visual injury, 0 to 100 scale (0 no effect, 100 complete control), approx. ten days
Method in brief: as §2

[9] = tested on: pigweed (Amaranthus retroflexus); assay: Test A pre-/postemergence plant response; details: for Pigweed plant response rating: visual injury, 0 to 100 scale (0 no effect, 100 complete control), approx. ten days
Method in brief: as §2

corn (Zea mays) = assay: Test A pre-/postemergence plant response; details: for Corn plant response rating: visual injury, 0 to 100 scale (0 no effect, 100 complete control), approx. ten days
Method in brief: as §2

[10] = tested on: wheat (Triticum aestivum); assay: Test A pre-/postemergence plant response; details: for Wheat plant response rating: visual injury, 0 to 100 scale (0 no effect, 100 complete control), approx. ten days
Method in brief: as §2

[11] = 62 g ai/ha, scale of 0 to 100 where 0 is no effect and 100 is complete control
[12] = 125 g ai/ha, scale 0 to 100, 0 is no effect, 100 is complete control
[13] = Postemergence, 125 g ai/ha, 0 to 100 scale where 0 is no effect and 100 is complete control
[14] = Preemergence, 125 g ai/ha, 0 to 100 scale, 0 = no effect, 100 = complete control
[15] = Preemergence, 500 g ai/ha, 0 to 100 scale, 0 = no effect, 100 = complete control

Cc1cccc(-c2ncc(C(=O)C3=C(O)CCCC3=O)c(=O)n2C2CCCCC2)c1 [Compound 185]
Plant response rating, Flood, Sedge, Umbrella [1]: 60
Plant response rating, Sedge, Umbrella [1, 11]: 75
Plant response rating, Sedge, Umbrella [1, 12]: 65
Sedge, Umbrella plant response rating [1]: 65
Plant response rating, Flood, Barnyardgrass [2]: 0
Plant response rating, Barnyardgrass [2, 11]: 0
Plant response rating, Barnyardgrass [2, 12]: 0
Barnyardgrass plant response rating [2]: 0
Plant response rating, Flood, Ducksalad [3]: 75
Plant response rating, Ducksalad [3, 11]: 70
Plant response rating, Ducksalad [3, 12]: 75
Ducksalad plant response rating [3]: 75
Plant response rating, Flood, Rice (rice (Oryza sativa)): 0
Plant response rating, Rice (rice (Oryza sativa); [11]): 0
Plant response rating, Rice (rice (Oryza sativa); [12]): 0
Rice plant response rating (rice (Oryza sativa)): 0
Plant response rating, Velvetleaf [4, 13]: 90
Velvetleaf plant response rating ([4]; Postemergence, 500 g ai/ha): 100
Plant response rating, Velvetleaf [4, 14]: 0
Plant response rating, Velvetleaf [4, 15]: 50
Plant response rating, Barnyardgrass [5, 13]: 70
Barnyardgrass plant response rating ([5]; Postemergence, 500 g ai/ha): 90
Plant response rating, Barnyardgrass [5, 14]: 0
Plant response rating, Barnyardgrass [5, 15]: 50
Plant response rating, Foxtail, Giant [6, 13]: 50
Foxtail, Giant plant response rating ([6]; Postemergence, 500 g ai/ha): 80
Plant response rating, Foxtail, Giant [6, 14]: 0
Plant response rating, Foxtail, Giant [6, 15]: 50
Plant response rating, Morningglory [7, 13]: 100
Morningglory plant response rating ([7]; Postemergence, 500 g ai/ha): 100
Plant response rating, Morningglory [7, 15]: 30
Plant response rating, Crabgrass, Large [8, 13]: 50
Crabgrass, Large plant response rating ([8]; Postemergence, 500 g ai/ha): 70
Plant response rating, Crabgrass, Large [8, 14]: 0
Plant response rating, Crabgrass, Large [8, 15]: 30
Plant response rating, Pigweed [9, 13]: 90
Pigweed plant response rating ([9]; Postemergence, 500 g ai/ha): 100
Plant response rating, Pigweed [9, 14]: 0
Plant response rating, Pigweed [9, 15]: 70
Plant response rating, Corn (corn (Zea mays); [13]): 0
Corn plant response rating (corn (Zea mays); Postemergence, 500 g ai/ha): 50
Plant response rating, Corn (corn (Zea mays); [14]): 0
Plant response rating, Corn (corn (Zea mays); [15]): 0
Plant response rating, Wheat [10, 13]: 0
Wheat plant response rating ([10]; Postemergence, 500 g ai/ha): 0
Plant response rating, Wheat [10, 14]: 0
Plant response rating, Wheat [10, 15]: 0

CCc1cccc(-c2ncc(C(=O)C3=C(O)CCCC3=O)c(=O)n2C2CCCCC2)c1 [Compound 194]
Plant response rating, Flood, Sedge, Umbrella [1]: 65
Plant response rating, Sedge, Umbrella [1, 11]: 0
Plant response rating, Sedge, Umbrella [1, 12]: 0
Sedge, Umbrella plant response rating [1]: 0
Plant response rating, Flood, Barnyardgrass [2]: 15
Plant response rating, Barnyardgrass [2, 11]: 0
Plant response rating, Barnyardgrass [2, 12]: 10
Barnyardgrass plant response rating [2]: 0
Plant response rating, Flood, Ducksalad [3]: 80
Plant response rating, Ducksalad [3, 11]: 50
Plant response rating, Ducksalad [3, 12]: 50
Ducksalad plant response rating [3]: 40
Plant response rating, Flood, Rice (rice (Oryza sativa)): 0
Plant response rating, Rice (rice (Oryza sativa); [11]): 0
Plant response rating, Rice (rice (Oryza sativa); [12]): 0
Rice plant response rating (rice (Oryza sativa)): 0
Plant response rating, Velvetleaf [4, 13]: 100
Velvetleaf plant response rating ([4]; Postemergence, 500 g ai/ha): 100
Plant response rating, Velvetleaf [4, 14]: 30
Plant response rating, Velvetleaf [4, 15]: 70
Plant response rating, Barnyardgrass [5, 13]: 90
Barnyardgrass plant response rating ([5]; Postemergence, 500 g ai/ha): 100
Plant response rating, Barnyardgrass [5, 14]: 0
Plant response rating, Barnyardgrass [5, 15]: 40
Plant response rating, Foxtail, Giant [6, 13]: 30
Foxtail, Giant plant response rating ([6]; Postemergence, 500 g ai/ha): 50
Plant response rating, Morningglory [7, 13]: 90
Morningglory plant response rating ([7]; Postemergence, 500 g ai/ha): 100
Plant response rating, Morningglory [7, 15]: 20
Plant response rating, Crabgrass, Large [8, 13]: 60
Crabgrass, Large plant response rating ([8]; Postemergence, 500 g ai/ha): 90
Plant response rating, Crabgrass, Large [8, 14]: 20
Plant response rating, Crabgrass, Large [8, 15]: 40
Plant response rating, Pigweed [9, 13]: 100
Pigweed plant response rating ([9]; Postemergence, 500 g ai/ha): 100
Plant response rating, Pigweed [9, 14]: 50
Plant response rating, Pigweed [9, 15]: 100
Plant response rating, Corn (corn (Zea mays); [13]): 0
Corn plant response rating (corn (Zea mays); Postemergence, 500 g ai/ha): 10
Plant response rating, Corn (corn (Zea mays); [14]): 0
Plant response rating, Corn (corn (Zea mays); [15]): 0
Plant response rating, Wheat [10, 13]: 0
Wheat plant response rating ([10]; Postemergence, 500 g ai/ha): 0
Plant response rating, Wheat [10, 14]: 0
Plant response rating, Wheat [10, 15]: 0
